Measurements published in patent US12077503B2, “Substituted cyclic amides and their use as herbicides” (FMC CORPORATION, priority 2015, dated 2024).

Assays:
Assay type in all cases: in vivo
[1] = tested on: barnyardgrass (Echinochloa crus-galli); test: Test G Pre-Emergence Protocol; conditions: Echinochloa crus-galli, pre-emergence, 312 h, evaluated after 13 days; for pest or weed control at 15.625 g/ha: 15.625 g ai/ha, read-out: Barnyard grass damage rating (100=total damage to plant; 0=no damage to plant); for pest or weed control at 62.5 g/ha: 62.5 g ai/ha, 100=total damage to plant, 0=no damage to plant, read-out: plant damage rating, Barnyardgrass; for pest or weed control at 250 g/ha: 250 g ai/ha, read-out: Barnyardgrass damage rating (100=total damage to plant; 0=no damage to plant)
Summary of the method: (§1)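 Under a 24/16° C day/night regime with 14 h light and 65% humidity, sown pots were sprayed after one day with compound (15.625, 62.5 or 250 g/ha; 50:50 acetone/water, 0.5% Tween 20). Damage was assessed visually 13 days later, 0 to 100.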

[2] = tested on: corn (Zea mays); test: Test G Pre-Emergence Protocol; conditions: Zea mays, pre-emergence, 312 h, evaluated after 13 days; for plant injury at 15.625 g/ha: 15.625 g ai/ha; for plant injury at 15.625 g/ha / plant injury at 250 g/ha: read-out: Corn damage rating (100=total damage to plant; 0=no damage to plant); for plant injury at 62.5 g/ha: 62.5 g ai/ha, 100=total damage to plant, 0=no damage to plant, read-out: plant damage rating, Corn; for plant injury at 250 g/ha: 250 g ai/ha
Summary of the method: as §1

[3] = tested on: giant foxtail (Setaria faberi); test: Test G Pre-Emergence Protocol; conditions: Setaria faberi, pre-emergence, 312 h, evaluated after 13 days; for pest or weed control at 15.625 g/ha: 15.625 g ai/ha; for pest or weed control at 15.625 g/ha / pest or weed control at 250 g/ha: read-out: Foxtail, Giant damage rating (100=total damage to plant; 0=no damage to plant); for pest or weed control at 62.5 g/ha: 62.5 g ai/ha, 100=total damage to plant, 0=no damage to plant, read-out: plant damage rating, Foxtail, Giant; for pest or weed control at 250 g/ha: 250 g ai/ha
Summary of the method: as §1

[4] = tested on: ivy-leaved morning glory (Ipomoea hederacea); test: Test G Pre-Emergence Protocol; conditions: Ipomoea, pre-emergence, 312 h, evaluated after 13 days; for pest or weed control at 15.625 g/ha: 15.625 g ai/ha, read-out: Morning-glory, Ivy-leaved damage rating (100=total damage to plant; 0=no damage to plant); for pest or weed control at 62.5 g/ha: 62.5 g ai/ha, 100=total damage to plant, 0=no damage to plant, read-out: plant damage rating, Morningglory, Ivy-leaved; for pest or weed control at 250 g/ha: 250 g ai/ha, read-out: Morningglory, Ivy-leaved damage rating (100=total damage to plant; 0=no damage to plant)
Summary of the method: as §1

[5] = tested on: redroot pigweed (Amaranthus retroflexus); test: Test G Pre-Emergence Protocol; conditions: Amaranthus retroflexus, pre-emergence, 312 h, evaluated after 13 days; for pest or weed control at 15.625 g/ha: 15.625 g ai/ha; for pest or weed control at 15.625 g/ha / pest or weed control at 250 g/ha: read-out: Pigweed, Redroot damage rating (100=total damage to plant; 0=no damage to plant); for pest or weed control at 62.5 g/ha: 62.5 g ai/ha, 100=total damage to plant, 0=no damage to plant, read-out: plant damage rating, Pigweed, Redroot; for pest or weed control at 250 g/ha: 250 g ai/ha
Summary of the method: as §1

[6] = tested on: velvetleaf (Abutilon theophrasti); test: Test G Pre-Emergence Protocol; conditions: Abutilon theophrasti, pre-emergence, 312 h, evaluated after 13 days; for pest or weed control at 15.625 g/ha: 15.625 g ai/ha; for pest or weed control at 15.625 g/ha / pest or weed control at 250 g/ha: read-out: Velvetleaf damage rating (100=total damage to plant; 0=no damage to plant); for pest or weed control at 62.5 g/ha: 62.5 g ai/ha, 100=total damage to plant, 0=no damage to plant, read-out: plant damage rating, Velvetleaf; for pest or weed control at 250 g/ha: 250 g ai/ha
Summary of the method: as §1

[7] = tested on: barnyardgrass (Echinochloa crus-galli); test: Test G Post-Emergence Protocol; conditions: Echinochloa crus-galli, post-emergence, 312 h; for pest or weed control at 15.625 g/ha: 15.625 g ai/ha, evaluated after 13 days (100=total damage to plant; 0=no damage to plant), read-out: Barnyardgrass damage rating; for pest or weed control at 62.5 g/ha: 62.5 g ai/ha, read-out: Barnyardgrass damage rating (100=total damage to plant; 0=no damage to plant); for pest or weed control at 62.5 g/ha / pest or weed control at 250 g/ha: evaluated after 13 days; for pest or weed control at 250 g/ha: 250 g ai/ha, read-out: damage to plant, Barnyardgrass (100=total damage to plant; 0=no damage to plant)
Protocol: (§2) Seeds of corn (Zea mays), giant foxtail (Setaria faberi), barnyardgrass (Echinochloa crus-galli), ivy-leaved morning glory (Ipomoea hederacea), redroot pigweed (Amaranthus retroflexus) and velvetleaf (Abutilon theophrasti) were sown in standard soil in pots. After cultivation for 8 days under controlled conditions in a glasshouse (at 24/16° C., day/night; 14 hours light; 65% humidity), the plants were sprayed with an aqueous spray solution derived from the formulation of the technical active ingredient in acetone/water (50:50) solution containing 0.5% Tween 20 (polyoxyethylene sorbitan monolaurate, CAS RN 9005-64-5) to give a final dose of 15.625, 62.5 or 250 g/ha of test compound.
(§3) The test plants were then grown on under controlled conditions in a glasshouse (at 24/16° C., day/night; 14 hours light; 65% humidity) and watered twice daily. After 13 days the test was evaluated (100=total damage to plant; 0=no damage to plant). A dash (-) means no test result.

[8] = tested on: corn (Zea mays); test: Test G Post-Emergence Protocol; conditions: Zea mays, post-emergence, 312 h; for plant injury at 15.625 g/ha: 15.625 g ai/ha, evaluated after 13 days (100=total damage to plant; 0=no damage to plant), read-out: Corn damage rating; for plant injury at 62.5 g/ha: 62.5 g ai/ha, read-out: Corn damage rating (100=total damage to plant; 0=no damage to plant); for plant injury at 62.5 g/ha / plant injury at 250 g/ha: evaluated after 13 days; for plant injury at 250 g/ha: 250 g ai/ha, read-out: damage to plant, Corn (100=total damage to plant; 0=no damage to plant)
Protocol: as §2, §3

[9] = tested on: giant foxtail (Setaria faberi); test: Test G Post-Emergence Protocol; conditions: Setaria faberi, post-emergence, 312 h; for pest or weed control at 15.625 g/ha: 15.625 g ai/ha, evaluated after 13 days (100=total damage to plant; 0=no damage to plant), read-out: Foxtail, Giant damage rating; for pest or weed control at 62.5 g/ha: 62.5 g ai/ha, read-out: Foxtail, Giant damage rating (100=total damage to plant; 0=no damage to plant); for pest or weed control at 62.5 g/ha / pest or weed control at 250 g/ha: evaluated after 13 days; for pest or weed control at 250 g/ha: 250 g ai/ha, read-out: damage to plant, Foxtail, Giant (100=total damage to plant; 0=no damage to plant)
Protocol: as §2, §3

[10] = tested on: ivy-leaved morning glory (Ipomoea hederacea); test: Test G Post-Emergence Protocol; conditions: Ipomoea, post-emergence, 312 h; for pest or weed control at 15.625 g/ha: 15.625 g ai/ha, evaluated after 13 days (100=total damage to plant; 0=no damage to plant), read-out: Morningglory, Ivy-leaved damage rating; for pest or weed control at 62.5 g/ha: 62.5 g ai/ha, read-out: Morningglory, Ivy-leaved damage rating (100=total damage to plant; 0=no damage to plant); for pest or weed control at 62.5 g/ha / pest or weed control at 250 g/ha: evaluated after 13 days; for pest or weed control at 250 g/ha: 250 g ai/ha, read-out: damage to plant, Morningglory, Ivy-leaved (100=total damage to plant; 0=no damage to plant)
Protocol: as §2, §3

[11] = tested on: redroot pigweed (Amaranthus retroflexus); test: Test G Post-Emergence Protocol; conditions: Amaranthus retroflexus, post-emergence, 312 h; for pest or weed control at 15.625 g/ha: 15.625 g ai/ha, evaluated after 13 days (100=total damage to plant; 0=no damage to plant), read-out: Pigweed, Redroot damage rating; for pest or weed control at 62.5 g/ha: 62.5 g ai/ha, read-out: Pigweed, Redroot damage rating (100=total damage to plant; 0=no damage to plant); for pest or weed control at 62.5 g/ha / pest or weed control at 250 g/ha: evaluated after 13 days; for pest or weed control at 250 g/ha: 250 g ai/ha, read-out: damage to plant, Pigweed, Redroot (100=total damage to plant; 0=no damage to plant)
Protocol: as §2, §3

[12] = tested on: velvetleaf (Abutilon theophrasti); test: Test G Post-Emergence Protocol; conditions: Abutilon theophrasti, post-emergence, 312 h; for pest or weed control at 15.625 g/ha: 15.625 g ai/ha, evaluated after 13 days (100=total damage to plant; 0=no damage to plant), read-out: Velvetleaf damage rating; for pest or weed control at 62.5 g/ha: 62.5 g ai/ha, read-out: Velvetleaf damage rating (100=total damage to plant; 0=no damage to plant); for pest or weed control at 62.5 g/ha / pest or weed control at 250 g/ha: evaluated after 13 days; for pest or weed control at 250 g/ha: 250 g ai/ha, read-out: damage to plant, Velvetleaf (100=total damage to plant; 0=no damage to plant)
Protocol: as §2, §3

Structure (SMILES) | pest or weed control at 15.625 g/ha [1] [%] | pest or weed control at 62.5 g/ha [1] [%] | pest or weed control at 250 g/ha [1] [%] | plant injury at 15.625 g/ha [2] [%] | plant injury at 62.5 g/ha [2] [%] | plant injury at 250 g/ha [2] [%] | pest or weed control at 15.625 g/ha [3] [%] | pest or weed control at 62.5 g/ha [3] [%] | pest or weed control at 250 g/ha [3] [%] | pest or weed control at 15.625 g/ha [4] [%] | pest or weed control at 62.5 g/ha [4] [%] | pest or weed control at 250 g/ha [4] [%] | pest or weed control at 15.625 g/ha [5] [%] | pest or weed control at 62.5 g/ha [5] [%] | pest or weed control at 250 g/ha [5] [%] | pest or weed control at 15.625 g/ha [6] [%] | pest or weed control at 62.5 g/ha [6] [%] | pest or weed control at 250 g/ha [6] [%] | pest or weed control at 15.625 g/ha [7] [%] | pest or weed control at 62.5 g/ha [7] [%] | also measured
CN1C[C@H](c2ccc(C(F)(F)F)cc2)[C@@H](C(=O)Nc2ccc(F)cc2[N+](=O)[O-])C1=O (racemic) [Compound 1425] | 0 | 40 | 60 | 0 | 0 | 0 | 10 | 80 | 80 | 0 | 0 | 0 | 0 | 0 | 0 | 0 | 0 | 0 | 0 | 20 | pest or weed control at 250 g/ha [7]: 20%; plant injury at 15.625 g/ha [8]: 10%; plant injury at 62.5 g/ha [8]: 10%; plant injury at 250 g/ha [8]: 10%; pest or weed control at 15.625 g/ha [9]: 10%; pest or weed control at 62.5 g/ha [9]: 40%; pest or weed control at 250 g/ha [9]: 50%; pest or weed control at 15.625 g/ha [10]: 0%; pest or weed control at 62.5 g/ha [10]: 0%; pest or weed control at 250 g/ha [10]: 0%; pest or weed control at 15.625 g/ha [11]: 20%; pest or weed control at 62.5 g/ha [11]: 30%; pest or weed control at 250 g/ha [11]: 40%; pest or weed control at 15.625 g/ha [12]: 0%; pest or weed control at 62.5 g/ha [12]: 0%; pest or weed control at 250 g/ha [12]: 0%
CN1C[C@H](c2ccc(C(F)(F)F)cc2)[C@@H](C(=O)Nc2ccc(C(F)(F)F)cc2F)C1=O (racemic) [Compound 1426] | 0 | 10 | 20 | 0 | 0 | 0 | 0 | 50 | 70 | 0 | 0 | 0 | 0 | 0 | 0 | 0 | 0 | 0 | 0 | 0 | pest or weed control at 250 g/ha [7]: 20%; plant injury at 15.625 g/ha [8]: 10%; plant injury at 62.5 g/ha [8]: 0%; plant injury at 250 g/ha [8]: 10%; pest or weed control at 15.625 g/ha [9]: 0%; pest or weed control at 62.5 g/ha [9]: 0%; pest or weed control at 250 g/ha [9]: 40%; pest or weed control at 15.625 g/ha [10]: 0%; pest or weed control at 62.5 g/ha [10]: 0%; pest or weed control at 250 g/ha [10]: 0%; pest or weed control at 15.625 g/ha [11]: 0%; pest or weed control at 62.5 g/ha [11]: 10%; pest or weed control at 250 g/ha [11]: 10%; pest or weed control at 15.625 g/ha [12]: 0%; pest or weed control at 62.5 g/ha [12]: 0%; pest or weed control at 250 g/ha [12]: 0%
